# Experiments:
# [1] = system: HIV-1IIIB in CEM-SS cells; assay: HIV-1 antiviral assay (CPE reduction, MTS); assay type: cell-based; conditions: peptide 10 micrograms per ml, 6 days post-infection
# CEM-SS cells = assay: Cytotoxicity in HIV-1 assay (MTS cell viability); conditions: peptide 10 micrograms per ml
# HepG2-2.2.15 cells = assay: Cytotoxicity in HBV assay (dye uptake cell viability); assay type: cell-based; conditions: test peptide 10 micrograms per ml, % cell control
# [2] = system: MRC-5 cells (human embryonal lung fibroblasts); conditions: 6 days
# Human A549 cells = assay: Propidium iodide cell cycle assay; assay type: cell-based; conditions: 24 hours, test peptide 10 micrograms per ml
# HUVEC = assay: Endothelial tube formation assay; assay type: cell-based, human; conditions: test peptide 10 micrograms per ml, 20 hours
# Excerpt: Positive control was vehicle only.
# [3] = system: spleen cells of Ovalbumin-immunized Balb/c mice; assay: Th1/Th2 cytokine profiling assay; assay type: cell-based, mouse; conditions: test peptide 10 micrograms per ml; Ovalbumin restimulation; 72 hours
# RAW 264.7 cells = assay: Phagocytosis assay (Fluorescein-labeled Escherichia coli); assay type: cell-based, mouse; conditions: test peptide 10 micrograms per ml
# [4] = system: Human Peripheral Blood Mononuclear Cells (PBMC), B cell proliferation; assay: B cell proliferation assay (SAC plus IL-2, 3H-thymidine); assay type: cell-based; conditions: test peptide 10 micrograms per ml, 3 days plus 12 hours 3H-thymidine
# [5] = system: HCMV strain AD169 in MRC-5 cells; assay: HCMV plaque reduction assay; conditions: HCMV AD169 in MRC-5 cells; peptide 10 micrograms per ml; 7-10 days
# MRSA = conditions: 5 micrograms per ml
# [6] = system: hepatitis B virus (HBV) ayw strain in HepG2-2.2.15 cells; assay: HBV replication assay (secreted HBV DNA, TaqMan PCR); assay type: cell-based; conditions: test peptide 10 micrograms per ml; six days; HBV DNA in supernatant
# Procedure: HepG2-2.2.15 is a stable cell line containing the hepatitis B virus (HBV) ayw strain genome (ATCC Cat. No. CRL-11997). Antiviral compounds blocking any late step of viral replication such as transcription, translation, pregenome encapsidation, reverse transcription, particle assembly and release can be identified and characterized using this cell line.
# HepG2-2.2.15 cells were plated in 96-well microtiter plates. After 16-24 hours the confluent monolayer of HepG2-2.2.15 cells was washed and the medium was replaced with complete medium containing test peptide—10 micrograms per ml—in duplicate. […] Three days later the culture medium was replaced with fresh medium containing the peptide. Six days following the initial administration of the peptide, the cell culture supernatants was collected, treated with pronase and DNAse and then used in a real-time quantitative TaqMan PCR assay. The PCR-amplified HBV DNA was detected in real-time by monitoring increases in fluorescence signals that result from the exonucleolytic degradation of a quenched fluorescence probe molecule that hybridizes to the amplified HBV DNA. For each PCR amplification, a standard curve was simultaneously generated using dilutions of purified HBV DNA. Antiviral activity was calculated from the reduction in HBV DNA levels (% virus control). […]
# [7] = Cytotoxicity in HBV assay (dye uptake cell viability); assay type: cell-based; conditions: human, HepG2-2.2.15 cells (stable line containing HBV ayw genome), test peptide 10 micrograms per ml, % cell control
# [8] = system: Human Peripheral Blood Mononuclear Cells (PBMC), T cell proliferation; assay: T cell proliferation assay (PHA, 3H-thymidine); assay type: cell-based; conditions: test peptide 10 micrograms per ml, 3 days plus 12 hours 3H-thymidine
# Streptococcus pneumoniae = assay type: cell-based; conditions: 5 micrograms per ml
# [9] = system: Primary Human endothelial cells (HUVEC); assay: Endothelial cell migration assay; assay type: cell-based; conditions: test peptide 10 micrograms per ml, 22 hours
# in vitro [10] = conditions: human, MRC-5 cells (human embryonal lung fibroblasts)
# Pseudomonas aeruginosa = assay type: cell-based; conditions: 5 micrograms per ml
# [11] = system: TNF alpha production in PBMC-derived macrophages; assay: TNF alpha production assay (LPS-stimulated macrophages, ELISA); assay type: cell-based, human; conditions: test peptide 10 micrograms per ml, lipopolysaccharide 200 ng/ml, overnight
# Excerpt: Not stimulated macrophages served as negative background control.
# in vitro [12] = conditions: human, CEM-SS cells
structure (smiles),measurement,setting,value
"Cc1cn([C@H]2C[C@H](N=[N+]=[N-])[C@@H](CO)O2)c(=O)[nH]c1=O [AZT, reference compound]",% CPE reduction in HIV-1 infected CEM-SS cells,[1],99%
same,% Cell viability,CEM-SS cells,97%
"Nc1ccn([C@@H]2CS[C@H](CO)O2)c(=O)n1 [Compound 3TC, reference compound]",% Cell viability,HepG2-2.2.15 cells,95.8%
Nc1nc(O)c2ncn(COC(CO)CO)c2n1 [Ganciclovir],% Cell viability,[2],100%
CSCC[C@H](NC(=O)[C@H](CC(C)C)NC(=O)CNC(=O)[C@@H](NC(=O)[C@H](Cc1ccccc1)NC(=O)[C@H](Cc1ccccc1)NC(=O)[C@H](CC(=O)O)NC(=O)[C@H](Cc1c[nH]cn1)NC(=O)[C@H](CCSC)NC(=O)[C@@H](N)CC(=O)O)C(C)C)C(N)=O [Neurokinin B],Cell cycle analysis G0/G1,Human A549 cells,53.0
same,Cell cycle analysis G2/M,Human A549 cells,14.8
same,Cell cycle analysis S,Human A549 cells,32.2
same,% CPE reduction in HIV-1 infected CEM-SS cells,[1],0.0%
same,% inhibition of tube formation,HUVEC,14%
same,IFNγ spleen cells; TH1 response (% of control),[3],126.8 % of control
same,IL-2 spleen cells (% of control),[3],198.0 % of control
same,IL-4 spleen cells; TH2 response (% of control),[3],103.5 % of control
same,IL-5 spleen cells; TH2 response (% of control),[3],99.2 % of control
same,TNF-a spleen cells; TH1 response (% of control),[3],151.0 % of control
same,% of control phagocytosis,RAW 264.7 cells,105.9%
same,% of SAC/IL2 induced control,[4],115.1%
same,% plaque reduction,[5],3.2%
same,% inhibition,MRSA,0.0%
same,% inhibition of HBV replication in HEP G2 cells,[6],78.5%
same,"viability at 144 h, 10 micrograms per ml",[7],96.1%
same,% of PHA induced control,[8],88.1%
same,% inhibition,Streptococcus pneumoniae,0.0%
same,% inhibition of migration,[9],−2%
same,viability at 144 h,in vitro [10],100%
same,% inhibition,Pseudomonas aeruginosa,0.0%
same,% of LPS induction,[11],115.9%
same,viability at 10 micrograms per ml,in vitro [12],98.5%
